Tests used:
GltPh-R397C [1] = target: T1, GltPh-R397C (Pyrococcus horikoshii, UniProt O59010, R397C); assay: biochemical
T1 construct: hexa-His (N, cleaved yes); made in house; host or cells: Escherichia coli Top10 (pBAD)
Method: (§1) Mutant and wild-type GltPh with an amino-terminal hexa-His tag were expressed in Escherichia coli Top10 cells (Invitrogen), which were grown in Luria broth medium at 37 °C. Ampicillin was added to a final concentration of 100 μg per ml. To induce expression of GltPh, 0.1% L-arabinose was added when cells reached an optical density of 0.6 at 660 nm, and cells were harvested 4 h post induction. Membranes were isolated, and then solubilised with n-dodecyl-β-D-maltopyranoside (C12M, Anatrace). Histidine containing proteins were purified using Ni^2+−nitrilotriacetic acid resin (Qiagen). The histidine tag was subsequently removed from GltPh by digestion with thrombin (10 U per mg protein) and the protein further purified on a Superdex 200 size exclusion column, where the detergent was exchanged to n-decyl-β-D-maltopyranoside (C10M, Anatrace).
(§2) Pure protein was reconstituted into liposomes composed of 75% E. coli Polar Lipid Extract and 25% 1-palmitoyl-2-oleoyl-sn-glycero-3 ^−phopshocholine (Avanti Polar Lipids). Lipids were mixed, dried under nitrogen and resuspended in internal buffer (100 mM KCl, 20 mM HEPES-Tris pH 7.5) using brief sonication (Laboratory Supplies Co.). The lipid suspension was frozen in liquid nitrogen and thawed at room temperature several times. Liposomes were formed by extrusion through 400 nm polycarbonate membranes (Avanti Polar Lipids) and were treated with Triton X-100 at a 0.5:1 (w/w) detergent to lipid ratio prior to the addition of protein at 0.25 μg protein per mg lipid. The protein/lipid mixture was left at room temperature for 30 min before detergent was removed using SM2 Biobeads (BioRad). The mixture was then incubated with gentle agitation, with four consecutive batches of Biobeads (80 mg per ml). Proteoliposomes were concentrated by centrifugation at 150,000 g for 30 min, resuspended at 100 mg lipid per ml and either used immediately or flash-frozen in liquid nitrogen and stored at −80 °C.
(§3) Mutant and wild-type GltPh-mediated transport of radiolabelled substrate was assayed by diluting proteoliposomes (100 mg lipid per ml) 133-fold into uptake buffer (100 mM NaCl, 20 mM HEPES-Tris pH 7.5, 1 μM valinomycin, 100 nM–1 µM L-[^3H]substrate) pre-warmed to 30 °C. At each time point, a 200 µl aliquot was removed and diluted 10-fold into ice-cold quench buffer (100 mM LiCl, 20 mM HEPES-Tris pH 7.5), followed by immediate filtration over nitrocellulose filters (0.22 μm pore size, Millipore). The filters were washed with ice-cold quench buffer and assayed for radioactivity using a Trilux beta counter (PerkinElmer). To establish substrate concentration–response curves, extraliposomal L-[^3H]substrate was varied between 500 nM and 100 µM, maintaining NaCl concentrations at 300 mM. For inhibitor concentration–response curves, for wild-type GltPh 100 nM L-[^3H]aspartate, and for mutant GltPh 1 µM L-[^3H]serine, was co-applied with varying inhibitor concentrations. Background levels of uptake were measured by diluting proteoliposomes into internal buffer (100 mM KCl, 20 mM HEPES-Tris pH 7.5) containing 1 µM of valinomycin and the indicated concentrations of L-[^3H]substrate.
Supplementary Figure 6. GltPh‐R397C, ASCT1 and ASCT2 are functional cysteine transporters. (a) Purified GltPh‐R397C was reconstituted into liposomes and 10µM 35S‐cysteine transport was measured over 10 minutes alone or in the presence of 1 mM dithiothreitol (DTT). Background levels of uptake were measured by diluting proteoliposomes into internal buffer (100 mM KCl, 20 mM HEPES‐Tris pH 7.5) containing 1 µM of valinomycin and the 10µM 35S‐cysteine. […]
(c) Neutral amino acid exchange in GltPh‐R397C. Counterflow experiments in which Na+ and amino acid loaded liposomes were used to detect the transport of a range of unlabelled neutral amino acids by exchanging with external 3H‐serine. Counterflow assays were performed using liposomes containing 200mM NaCl, 20 mM HEPES/Tris pH 7.5, and 1 mM of unlabelled amino acid as indicated. […]

GltPh-G396S/R397C = target: T2, GltPh-G396S/R397C (Pyrococcus horikoshii, UniProt O59010, G396S/R397C); assay: biochemical; format: biochemical; details: for Reduction of L-[3H]serine transport by unlabelled competitor (in words): GltPh-R397C/G396S, 10 µM L-[3H]serine, 100-fold excess unlabelled amino acid
T2 construct: hexa-His (N, cleaved yes); made in house; host or cells: Escherichia coli Top10 (pBAD)
T2 sequence (O59010 whole entry G396S/R397C): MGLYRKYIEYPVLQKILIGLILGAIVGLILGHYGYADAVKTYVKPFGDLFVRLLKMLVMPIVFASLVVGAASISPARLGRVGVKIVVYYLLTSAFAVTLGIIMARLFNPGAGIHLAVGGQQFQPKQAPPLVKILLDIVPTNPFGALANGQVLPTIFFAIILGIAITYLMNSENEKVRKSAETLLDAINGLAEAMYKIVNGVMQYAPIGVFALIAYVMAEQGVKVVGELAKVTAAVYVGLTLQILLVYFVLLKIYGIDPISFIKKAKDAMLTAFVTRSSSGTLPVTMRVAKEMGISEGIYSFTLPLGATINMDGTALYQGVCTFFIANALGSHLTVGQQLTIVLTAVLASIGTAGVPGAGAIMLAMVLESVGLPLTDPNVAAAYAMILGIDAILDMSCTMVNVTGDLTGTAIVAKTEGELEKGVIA
Method: as §1, §2, §3

wild-type GltPh = target: T3, wild-type GltPh (Pyrococcus horikoshii, UniProt O59010); assay: Proteoliposome transport assay, wild-type GltPh; format: biochemical
T3 construct: hexa-His (N, cleaved yes); made in house; host or cells: Escherichia coli Top10 (pBAD)
T3 sequence (O59010 1-425): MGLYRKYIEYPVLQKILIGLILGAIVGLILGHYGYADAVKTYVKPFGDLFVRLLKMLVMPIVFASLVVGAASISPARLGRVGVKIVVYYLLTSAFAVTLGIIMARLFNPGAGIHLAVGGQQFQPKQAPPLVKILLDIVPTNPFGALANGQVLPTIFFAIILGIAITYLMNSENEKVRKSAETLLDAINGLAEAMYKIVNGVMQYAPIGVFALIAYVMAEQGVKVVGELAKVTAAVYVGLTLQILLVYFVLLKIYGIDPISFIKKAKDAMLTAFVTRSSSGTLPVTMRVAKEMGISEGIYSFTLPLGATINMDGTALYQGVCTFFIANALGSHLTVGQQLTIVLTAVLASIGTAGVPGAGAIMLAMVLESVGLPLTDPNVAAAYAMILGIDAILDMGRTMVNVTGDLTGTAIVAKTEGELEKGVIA
Method: as §1, §2, §3

ASCTs = tested on: ASCTs; design: method as in PMID 9463476; details: quoted in discussion; cited from earlier work
GltPh-R397C [2] = target: T1, GltPh-R397C; assay: biochemical; format: binding
Method: Fluorescence-based binding assays were performed by titrating purified protein (50 μg per ml) in 20 mM HEPES/Tris, pH 7.4, 200 mM choline chloride, 0.4 mM n-dodecyl^−β-D-maltopyranoside, 200 nM styryl fluorescent dye RH421 (Invitrogen, Inc., Grand Island, NY) with NaCl, L-ser, L-cys or benzylcysteine at 25 °C[51]. The RH421 dye was excited at 532 nm, and the fluorescence was collected at 628 nm using a QuantaMaster (Photon International Technology, Inc., Edison, NJ). Fluorescence emissions were measured after at least 10 min equilibration to ensure a stabilised signal. The data were analysed using GraphPad Prism version 6.0 for Mac (GraphPad Software, La Jolla California USA). Fractional fluorescence changes were normalised to maximal fluorescence changes, then plotted as a function of ligand concentration and fitted to the Hill equation. All the experiments were performed at least in triplicate.
Analysis of ligand binding data. The voltage sensitive amphipathic dye RH421 reports on Na+ binding to purified GltPh protein in detergent3. RH421 was used to follow Na+ binding to GltPh‐R397C protein either alone or in reactions coupled to binding of amino acids. […]
Coupled ions and amino acid binding was probed by titrating amino acids to the GltPh‐R397C protein in the presence of 10 – 100 mM Na+ ions. The obtained isotherms were analyzed to estimate an apparent number of Na+ ions coupled to binding of the amino acids.
Raw data were first normalized by the initial fluorescence of RH421 and plotted as fraction of fluorescence change (Supplementary […]
total amount of dye and detergent in the assay buffer.
To take into account significant amino acid‐independent Na+ binding, the sets of binding isotherms obtained at variable Na+ concentrations were fitted globally to a simplified binding equation: […]
KD,a is the combined dissociation constant for coupled Na+ and ligand binding and n is the apparent number of coupled ions. Fraction of the protein bound to either Na+ ions alone or to the ions and the […]
Fraction of the protein already bound to Na+ ions before ligand addition is: […]
Fractional fluorescence change Y is fitted to an equation: […]
where Y0 and ∆Y are, respectively, baseline and the signal difference between fully bound and apo […]
KD,a and n were fitted globally for each ligand. Y0 and ∆Y were adjusted for each isotherm independently. […]
individual isotherm to a standard Hill equation, plotted the apparent dissociation constants as functions of Na+ concentrations and compared the values to those predicted using the parameters from the global fits (Supplementary Figure 8).

GltPh-R397C [3] = target: T1, GltPh-R397C; format: biochemical; details: 100 nM L-[3H]aspartate, 1 µM L-[3H]glutamine, 10 µM 35S-cysteine ± 1 mM DTT, Na+ gradient

T1 sequence (O59010 whole entry R397C): as the sequence (O59010 whole entry G396S/R397C) above, with S396G counted along it

Structure (SMILES): N[C@@H](CSCc1ccccc1)C(=O)O
- IC50 for inhibition of L-[3H]serine transport (GltPh-R397C [1]; GltPh-R397C, 1 µM L-[3H]serine): reduced affinity compared with benzylserine
- IC50 (GltPh-G396S/R397C): 280 ± 60 µM
- IC50 for inhibition of L-[3H]aspartate transport (wild-type GltPh; 100 nM L-[3H]aspartate): ineffective
- Affinity for the ASCTs (ASCTs): ~ 1 mM
- Kd (GltPh-R397C [2]): 1000 ± 300 µM
- Apparent number of Na+ ions coupled to binding (n) (GltPh-R397C [2]; GltPh-R397C, global fit of isotherms at 10–100 mM Na+, 25 °C): 0.8 ± 0.04

Structure (SMILES): C[C@H](N)C(=O)O [L-alanine]
- EC50 (GltPh-R397C [1]): 14 ± 3 µM
- EC50 (GltPh-G396S/R397C): 4 ± 0.2 µM
- Transport of radiolabelled substrate into proteoliposomes (in words) (wild-type GltPh; 1 µM L-[3H]substrate, Na+ gradient, pH 7.5): not transported

Structure (SMILES): N[C@@H](CC(=O)O)C(=O)O [L-aspartate]
- Transport of radiolabelled substrate into proteoliposomes (in words) (GltPh-G396S/R397C; GltPh-G396S/R397C, 100 nM L-[3H]aspartate, 1 µM L-[3H]glutamine, Na+ gradient, pH 7.5): does not effectively transport
- Transport of radiolabelled substrate into proteoliposomes (in words) (GltPh-R397C [3]): no longer capable of transporting

Structure (SMILES): CSCC[C@H](N)C(=O)O [L-methionine]
- Reduction of L-[3H]serine transport by unlabelled competitor (in words) (GltPh-G396S/R397C): to a similar extent

Structure (SMILES): CC(C)[C@H](N)C(=O)O [L-valine]
- Reduction of L-[3H]serine transport by unlabelled competitor (in words) (GltPh-G396S/R397C): to a similar extent

From paper PMC5750217 (Nature Communications, 2018)
